Laboratory results as given in PubChem BioAssay AID2060904 (Molecular Pharmacology Branch, DTP, NCI, 2025).

System: 349418-098-R-PDC complex spheroid viability
Assay: Anticancer human tumor 349418-098-R-PDC patient-derived lung adenocarcinoma cell line growth inhibition [RAS]
Conditions: for IC50: curve of first compound; for viability, T/C: stronger effect = lower value; active = viability on the fitted dose curve at most 10% of control; inactive = the rest
Description: RAS pathway inhibitors in Combinations in Complex Spheroids
A high-throughput screen of multi-cell type tumor spheroids was designed to identify active combinations of RAS pathway inhibitors and targeted small molecules. Complex spheroids include a stromal component modeled by human endothelial cells (HUVEC) and fibroblasts modeled by human mesenchymal stem cells (MSCs). The concentration ranges selected for each drug and investigational agent were based upon clinically achievable concentrations if the clinical Cmax of the agent was known.
Compounds. The drugs and investigational agents: abemaciclib (NSC768073), cobimetinib (NSC768068), divarasib (GDC6063, NSC841802), docetaxel (NSC628503), GDC-1971 (RLY-1971, NSC841576), gemcitabine (NSC613327), inavolisib (NSC800729), ipatasertib (NSC767898), KB-0742 (NSC834161), MRTX-1133 (NSC836407), osimertinib (NSC779217), RMC-4630 (NSC839698), RMC-6236 (NSC851965), RMC-6291 (NSC852671), Ro-3306 (NSC812927), sapanisertib (NSC764658), SN-38 (NSC673596), staurosporine (NSC755774), SY5609 (NSC837396), and tovorafenib (DAY101, NSC766906), were obtained from the National Cancer Institute (NCI) Developmental Therapeutics Program Chemical Repository. The FDA-approved anticancer drug set is available from the NCI Developmental Therapeutics Program. […] The stock solutions were prepared in dimethyl sulfoxide (DMSO, Sigma-Aldrich, St. Louis, MO, cat. D2650) at 800-fold the tested concentration and stored at -70 degrees C prior to their use. All drugs and investigational agents were tested over a range starting from a high concentration at or near the clinical Cmax and decreasing in half-log increments. If the clinical Cmax for an agent had not been determined, the highest concentration tested was 10 microM.
Cell Culture. All cells were maintained in an incubator at 37 degrees C and 5% CO2 with 95% humidity. The PDC lines were cultured according to standard operating procedures established by the NCI PDMR. All PDCs were thawed and cultured in Matrigel-coated flasks prepared with a working solution of 1X Ham's F-12 nutrient mix, without supplementation (Invitrogen, Waltham, MA, cat. 11765054), 100 U/mL penicillin-streptomycin (Invitrogen, cat. 15140122), and 2.5% Matrigel (Corning Inc., Corning, NY, cat. 354248) for the first three passages. The 362531-283-R-J2-PDC and 782815-120-R-J1-PDC lines were cultured in 6C/Colon 1B media, which includes advanced DMEM/F-12 (Thermo Fisher Scientific, cat. 12634028), 10 mM HEPES (Thermo Fisher Scientific, cat. 15630080), 1X GlutaMAX supplement (Thermo Fisher Scientific, cat. 35050061), 0.1 mg/mL primocin (InvivoGen, San Diego, CA, cat. ant-pm-2), 10% defined fetal bovine serum, heat inactivated (HyClone Laboratories Inc., Logan, UT, cat. SH30070.03HI), 50% L-WRN conditioned media (ATCC, cat. CRL-3276), 1.25 mM N-Acetyl-L-cysteine (Sigma-Aldrich, cat. A9165), 10 mM nicotinamide (Sigma-Aldrich, cat. N0636), 1X B-27 supplement (Thermo Fisher Scientific, cat. 17504044), 1X N-2 supplement (Thermo Fisher Scientific, cat. 17502048), 50 ng/mL human EGF (Thermo Fisher Scientific, cat. PHG0311), and 10 microM Y-27632 dihydrochloride (Tocris Bioscience, cat. 1254). The K12877-001-R-J1-PDC line was cultured in 6I media, which includes all 6C/Colon 1B media plus 10 ng/mL human FGF-10 (PeproTech, cat. 100-26), 1 ng/mL human FGF-2 (PeproTech, cat. 100-18B), 1 µM prostaglandin E2 (Tocris Bioscience, cat. 2296), […] hydrocortisone (Sigma-Aldrich, cat. H4001), and […] bovine insulin (Sigma-Aldrich, cat. I6634). The K86415-001-R-J1-PDC line was cultured in 6D media, which includes all 6C/Colon 1B media components minus the L-WRN conditioned media. The 485176-168-R4-J1-PDC was cultured in PANC media, which includes all 6C/Colon 1B media plus 100 ng/mL human FGF-10 (PeproTech, cat. 100-26), 500 nM SB-431542 (Selleckchem, cat. S1067), and 10 nM gastrin (Tocris Bioscience, cat. 3006). […]

[1] = second compound 0.0316 µM, first compound 0.0316 µM
[2] = second compound 0.0316 µM, first compound 0.1 µM
[3] = second compound 0.1 µM, first compound 0.0316 µM
[4] = second compound 0.1 µM, first compound 0.1 µM
[5] = second compound 0.316 µM, first compound 0.0316 µM
[6] = second compound 0.316 µM, first compound 0.1 µM
[7] = second compound 1 µM, first compound 0.0316 µM
[8] = second compound 1 µM, first compound 0.1 µM
[9] = second compound 3.16 µM, first compound 0.0316 µM
[10] = second compound 3.16 µM, first compound 0.1 µM
[11] = second compound 10 µM, first compound 0.0316 µM
[12] = second compound 10 µM, first compound 0.1 µM
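Note: spheroids exposed to compound for seven days before viability readout.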

CC(C)n1nc(-c2ccc3oc(N)nc3c2)c2c(N)ncnc21 + C#Cc1c(F)ccc2cc(O)cc(-c3ncc4c(N5CC6CCC(C5)N6)nc(OCC56CCCN5CC(F)C6)nc4c3F)c12
5.82 nM: IC50 (second compound 0.0316 µM)
5.3 nM: IC50 (second compound 0.316 µM)
inactive: viability, T/C (second compound 0.0316 µM, first compound 0.000316 µM) 98.7% | viability, T/C (second compound 0.0316 µM, first compound 0.001 µM) 132% | viability, T/C (second compound 0.0316 µM, first compound 0.00316 µM) 90.5% | viability, T/C (second compound 0.0316 µM, first compound 0.01 µM) 15.3% | viability, T/C [1] 10.9% | viability, T/C [2] 10.4% | viability, T/C (second compound 0.1 µM, first compound 0.000316 µM) 67.8% | viability, T/C (second compound 0.1 µM, first compound 0.001 µM) 123% | viability, T/C (second compound 0.1 µM, first compound 0.00316 µM) 56% | viability, T/C (second compound 0.1 µM, first compound 0.01 µM) 19.4% | viability, T/C [3] 10.4% | viability, T/C [4] 9% | viability, T/C (second compound 0.316 µM, first compound 0.000316 µM) 87.8% | viability, T/C (second compound 0.316 µM, first compound 0.001 µM) 114% | viability, T/C (second compound 0.316 µM, first compound 0.00316 µM) 73.9% | viability, T/C (second compound 0.316 µM, first compound 0.01 µM) 20.5% | viability, T/C (second compound 1 µM, first compound 0.000316 µM) 74.8% | viability, T/C (second compound 1 µM, first compound 0.001 µM) 111% | viability, T/C (second compound 1 µM, first compound 0.00316 µM) 85.9% | viability, T/C (second compound 1 µM, first compound 0.01 µM) 29.2% | viability, T/C (second compound 3.16 µM, first compound 0.000316 µM) 109% | viability, T/C (second compound 3.16 µM, first compound 0.001 µM) 104% | viability, T/C (second compound 3.16 µM, first compound 0.00316 µM) 48.4% | viability, T/C (second compound 3.16 µM, first compound 0.01 µM) 30.2% | viability, T/C [9] 9.48% | viability, T/C [10] 8.95% | viability, T/C (second compound 10 µM, first compound 0.000316 µM) 56.1% | viability, T/C (second compound 10 µM, first compound 0.001 µM) 72% | viability, T/C (second compound 10 µM, first compound 0.00316 µM) 28.5%
6.59 nM: IC50 (second compound 1 µM)
3.71 nM: IC50 (second compound 0.1 µM)
1.58 nM: IC50 (second compound 10 µM)
3.7 nM: IC50 (second compound 3.16 µM)
active: viability, T/C [5] 8.95% | viability, T/C [6] 8.66% | viability, T/C [7] 8.08% | viability, T/C [8] 9.16% | viability, T/C (second compound 10 µM, first compound 0.01 µM) 10.7% | viability, T/C [11] 6.47% | viability, T/C [12] 4.1%

C[C@@H](NC(=O)c1ncnc(N)c1Cl)c1ncc(C(=O)Nc2cc(C(F)(F)F)c(Cl)cn2)s1 + C#Cc1c(F)ccc2cc(O)cc(-c3ncc4c(N5CC6CCC(C5)N6)nc(OCC56CCCN5CC(F)C6)nc4c3F)c12
2210 nM: IC50 (second compound 0.316 µM)
2690 nM: IC50 (second compound 1 µM)
2710 nM: IC50 (second compound 0.1 µM)
398 nM: IC50 (second compound 10 µM)
2440 nM: IC50 (second compound 0.0316 µM)
active: viability, T/C (second compound 10 µM, first compound 10 µM) 8.17%
inactive: viability, T/C [1] 83.8% | viability, T/C [2] 116% | viability, T/C (second compound 0.0316 µM, first compound 0.316 µM) 89% | viability, T/C (second compound 0.0316 µM, first compound 1 µM) 67.8% | viability, T/C (second compound 0.0316 µM, first compound 3.16 µM) 47.2% | viability, T/C (second compound 0.0316 µM, first compound 10 µM) 35.4% | viability, T/C [3] 101% | viability, T/C [4] 118% | viability, T/C (second compound 0.1 µM, first compound 0.316 µM) 95.9% | viability, T/C (second compound 0.1 µM, first compound 1 µM) 73.2% | viability, T/C (second compound 0.1 µM, first compound 3.16 µM) 47.4% | viability, T/C (second compound 0.1 µM, first compound 10 µM) 36.6% | viability, T/C [5] 110% | viability, T/C [6] 119% | viability, T/C (second compound 0.316 µM, first compound 0.316 µM) 76.4% | viability, T/C (second compound 0.316 µM, first compound 1 µM) 62.4% | viability, T/C (second compound 0.316 µM, first compound 3.16 µM) 52% | viability, T/C (second compound 0.316 µM, first compound 10 µM) 32.8% | viability, T/C [7] 90.7% | viability, T/C [8] 93.8% | viability, T/C (second compound 1 µM, first compound 0.316 µM) 107% | viability, T/C (second compound 1 µM, first compound 1 µM) 76.7% | viability, T/C (second compound 1 µM, first compound 3.16 µM) 47.6% | viability, T/C (second compound 1 µM, first compound 10 µM) 34.5% | viability, T/C [9] 86.6% | viability, T/C [10] 92.8% | viability, T/C (second compound 3.16 µM, first compound 0.316 µM) 87% | viability, T/C (second compound 3.16 µM, first compound 1 µM) 75.2% | viability, T/C (second compound 3.16 µM, first compound 3.16 µM) 48.5% | viability, T/C (second compound 3.16 µM, first compound 10 µM) 28.4% | viability, T/C [11] 76.5% | viability, T/C [12] 61.5% | viability, T/C (second compound 10 µM, first compound 0.316 µM) 57.5% | viability, T/C (second compound 10 µM, first compound 1 µM) 33.2% | viability, T/C (second compound 10 µM, first compound 3.16 µM) 30.2%
2940 nM: IC50 (second compound 3.16 µM)
